From the supplement of paper PMC10949913
Where a name gives a salt, the structure may show the parent alone.

Assays:
CU-ACC1 = assay: ExcessHSA synergy score with TAK-243; higher = less synergy (negative = synergistic); details: combined with: TAK-243 (MLN-7243) matrix, 9-point 1:2 dilution
Procedure: (§1)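 Each drug was tested at 9 points with 1:2 dilution; viability was read by CellTiter-Glo as in the single-agent screen. Synergy is scored as ExcessHSA (sum of excess over highest single agent; negative = synergy) and the Beta interaction parameter (<1 synergy).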

NCI-H295R = assay: as above; details: combined with: TAK-243 (MLN-7243) matrix, 9-point 1:2 dilution
Procedure: as §1

| SMILES | ExcessHSA synergy score with TAK-243 (CU-ACC1) | ExcessHSA synergy score with TAK-243 (NCI-H295R) |
| --- | --- | --- |
| C/C=C(/C)C(=O)O[C@H]1C(C)=C2[C@H]([C@@H]1OC(=O)CCCCCCC)[C@@](C)(OC(C)=O)C[C@H](OC(=O)CCC)[C@@]1(O)[C@H]2OC(=O)[C@@]1(C)O [Thapsigargin] | -443 | -409 |
| CN1CCN(c2ccc(Nc3ncc4cc5n(c4n3)C3(CCCCC3)CNC5=O)nc2)CC1 [Trilaciclib (hydrochloride)] | -171 | 125 |
| CO[C@H]1C[C@@H]2CC[C@@H](C)[C@@](O)(O2)C(=O)C(=O)N2CCCC[C@H]2C(=O)O[C@H]([C@H](C)C[C@@H]2CC[C@@H](OCCO)[C@H](OC)C2)CC(=O)[C@H](C)/C=C(\C)[C@@H](O)[C@@H](OC)C(=O)[C@H](C)C[C@H](C)/C=C/C=C/C=C/1C [Everolimus] | -885 | -1040 |
| NS(=O)(=O)OC[C@@H]1C[C@@H](n2ccc3c(N[C@H]4CCc5ccccc54)ncnc32)C[C@@H]1O [MLN-4924] | -111 | -344 |
| CCc1cc(C(N)=O)ccc1-n1nc(C(C)C)c2c(-n3cnc(-c4cnn(C)c4)c3)ccnc21 [Pimitespib] | 959 | 586 |
| Cc1nc2cccc(N)c2c(=O)n1C1CCC(=O)NC1=O (stereo not given) [Avadomide] | -213 | 1030 |
| CC[C@@]1(O)C(=O)OCc2c1cc1n(c2=O)Cc2cc3c(CN(C)C)c(O)ccc3nc2-1 [Topotecan hydrochloride] | -710 | -194 |
| COc1cc([C@@H](CC(=O)O)c2ccc(C)c(CN3C[C@@H](C)Oc4ccccc4S3(=O)=O)c2)cc2nnn(C)c12 [KI-696] | 533 | 351 |
| C[C@@H]1CN(Cc2ccc(F)cc2)[C@@H](C)CN1C(=O)c1cc2c(C(=O)C(=O)N(C)C)cn(C)c2cc1Cl [Talmapimod] | 218 | 657 |
| O=c1sn(-c2cccc3ccccc23)c(=O)n1Cc1ccccc1 [Tideglusib] | -108 | -74.2 |
| O=c1[nH]c(CSC2CCC(O)CC2)nc2cc(OCC3CC3)cc(F)c12 (stereo not given) | 650 | 1170 |
| Cc1[nH]c2ccccc2c1CCNCc1ccc(/C=C/C(=O)NO)cc1 [Panobinostat] | 181 | -23.3 |
| Cc1cc2c(C(N)=O)cccc2n1-c1nc2c(c(NCc3ccccc3)n1)COCC2 [CB-5083] | -143 | 71.1 |
| CCOC(=O)c1ccc(C#Cc2ccc3c(c2)C(C)(C)CCS3)nc1 [Tazarotene] | 230 | 136 |
| Cc1nc(=O)c2cc(CN(C)c3ccc(C(=O)N[C@@H](CCC(=O)O)C(=O)O)s3)ccc2[nH]1 [Raltitrexed] | -398 | -54.1 |
| C[C@@H]1OCC2(CCN(c3cnc(Sc4ccnc(N)c4Cl)c(N)n3)CC2)[C@@H]1N [TNO-155] | 176 | 322 |
| Cc1cc(C(=O)CN2CCCCC2)c(C)n1-c1ccc(Cl)cc1 [IU1-47] | -58.7 | 125 |
| C=CCn1c(=O)c2cnc(Nc3ccc(N4CCN(C)CC4)cc3)nc2n1-c1cccc(C(C)(C)O)n1 [MK-1775] | 295 | 169 |

| SMILES | ExcessHSA synergy score with TAK-243 (CU-ACC1) | ExcessHSA synergy score with TAK-243 (NCI-H295R) |
| --- | --- | --- |
| O=C(NCc1cc(F)cc(F)c1)[C@@]1(O)CCN(c2ccc3[nH]ccc3c2)C1=O [M8891] | 34 | 171 |
| CC1=C(/C=C/C(C)=C/C=C/C(C)=C\C(=O)O)C(C)(C)CCC1 [Isotretinoin] | 563 | 636 |
| O=C(O)C1(C(=O)O)CCC1.[NH2-].[NH2-].[Pt+2] [Carboplatin] | -188 | -21.5 |
| COc1ccc(C(=O)N2CCN(c3ccc4c(c3)CCC(=O)N4)CC2)cc1OC [Vesnarinone] | 628 | 706 |
| Nc1ncnc2c1ncn2C(C=O)OC(C=O)CO (stereo not given) [Adenosine Dialdehyde] | 349 | 712 |
| O=C1CC[C@H](N2Cc3c(OCc4ccc(CN5CCOCC5)cc4)cccc3C2=O)C(=O)N1 [Iberdomide] | 393 | 1110 |
| CN1C(=O)[C@@H](NC(=O)c2n[nH]c(Cc3ccccc3)n2)COc2ccccc21 | 359 | 714 |
| COC(=O)[C@]12CCC(C)(C)C[C@H]1[C@H]1C(=O)C=C3[C@@]4(C)C=C(C#N)C(=O)C(C)(C)[C@@H]4CC[C@@]3(C)[C@]1(C)CC2 [CDDO-Me] | 94.3 | 271 |
| N[C@H]1CC[C@H](N[C@@H]2C[C@H]2c2ccccc2)CC1 [ORY-1001] | -384 | -493 |
| NC(=O)c1c(NC(=O)COCc2cc(-c3cccs3)on2)sc2c1CCCC2 | 37.9 | 122 |
| NCCCC[C@H](NC(=O)[C@@H](NC(=O)[C@H](Cc1c[nH]c2ccccc12)NC(=O)[C@H](CCCCN)NC(=O)[C@H](CCCCN)NC(=O)[C@H](Cc1c[nH]c2ccccc12)NC(=O)[C@H](Cc1c[nH]c2ccccc12)NC(=O)[C@H](CCCCN)NC(=O)[C@@H](N)CCCCN)C(c1ccccc1)c1ccccc1)C(N)=O [Oncopore] | 401 | 391 |
| CNC(=O)Nc1ccc2c(c1)CC[C@@]21OC(=O)N(CC(=O)N(Cc2ccc(F)cc2)[C@@H](C)C(F)(F)F)C1=O [A-485] | 305 | 334 |
| CO[C@H]1CN(C)C(=O)c2cc(NC(=O)NC(C)C)ccc2OC[C@H](C)N(Cc2ccc(-c3ccccn3)cc2)C[C@@H]1C [BD98] | -213 | -760 |
| Nc1c(C(=O)c2ccccc2)sc2[nH]c(=O)c(C(=O)O)cc12 | -23.4 | -51.1 |
| CO[C@@]12[C@H](COC(N)=O)C3=C(C(=O)C(C)=C(N)C3=O)N1C[C@@H]1N[C@@H]12 [Mitomycin C] | 133 | 200 |
| O=C(NCc1ccc(S(=O)(=O)c2cccc(C(F)(F)F)c2)cc1)c1cnc2[nH]ncc2c1 [GNE-618] | -406 | -555 |
| Nc1ccn([C@@H]2O[C@H](CO)[C@@H](O)C2(F)F)c(=O)n1 [Gemcitabine] | -457 | 236 |
